The structures appear in SMILES notation. Values after ≈ are worked out from the molar mass of the structure shown.

The conditions of series [1]: chronic; duration: 133 days; other.
The test system of another series is Rattus norvegicus. The settings on record: acute; oral; mortality.
For the next series, the system named is Tagia sp. The settings on record: chronic/long-term; reproduction.
The subject of the next series is Folsomia candida. The conditions noted are these: chronic/long-term; reproduction.
The test system of a further series is Mus musculus. The settings on record: organ weight.
For the next series, the system named is Oncorhynchus mykiss. The conditions noted are these: acute; duration: 96 hours; mortality.
In a further series the test system is Apis mellifera. The settings on record: acute, mortality.
The test system of another series is Aphidius rhopalosiphi. The experiment in a line: LR50; higher = less toxic. The settings on record: acute; mortality.

Turning to `COc1ccnc(C(=O)N[C@H]2COC(=O)[C@H](Cc3ccccc3)[C@@H](OC(=O)C(C)C)[C@H](C)OC2=O)c1OCOC(=O)C(C)C` [Fenpicoxamid], the NOEC in series [1] is 0.0001 mg/L; in the series with Tagia sp., 9.93 mg/kg; in the series on Folsomia candida it was 3.97 mg/kg; in the series with Colinus virginianus (reproduction developmental), 12.1 mg/kg-day. In addition, the LD50 was > 2000 mg/kg-day with Rattus norvegicus; > 202 µg/piece in the series on Apis mellifera (dermal); > 303 µg/piece in the series on Apis mellifera (oral, unspecified); > 2000 mg/kg-day in the series on Colinus virginianus (acute, oral, mortality). The NOAEL turned out to be 5.27 mg/kg-day with Mus musculus (chronic, duration: 18 months); 39.6 mg/kg-day with Mus musculus (subchronic, duration: 90 days, oral); 495 mg/kg-day with Oryctolagus sp. (chronic, New Zealand, no effects); 177 mg/kg-day in the series on Oryctolagus sp. (reproduction developmental, reproduction). Also, the LC50 with Oncorhynchus mykiss turned out to be 1.1 µg/mL (≈ 1.79 µM). Moreover, in the series with Aphidius rhopalosiphi, the LR50 is > 129 g/ha.

What is called NOAEL is the highest dose or exposure tested at which no adverse effect was seen. One may read the LC50 as the concentration that kills 50% of the test population.

The values are drawn from EPA's ToxValDB 9.5 (doi:10.2903/j.efsa.2018.5146).
